One experiment has as its target PDGFRβ(h) (Homo sapiens, UniProt P09619). Nature of the experiment: Inhibition of isolated kinases. It counts as biochemical. To be noted: compound @ 10 μM. The text has this:
(§1) Table 5 illustrates percent activity of isolated kinases in the presence of the AstraZeneca ATP-competitive inhibitor (KX-328, AZ-28) or KX2-391 relative to control (untreated) isolated kinases.

Another experiment has as its target Lyn(h) (Homo sapiens, UniProt P07948). As to the kind of experiment: Inhibition of isolated kinases. To be noted: compound @ 10 μM. It counts as biochemical.
Text: as §1

The next experiment concerns the target Lck(h) (Homo sapiens, UniProt P06239). Nature of the experiment: Inhibition of isolated kinases. It counts as biochemical. To be noted: compound @ 10 μM.
Text: as §1

For the next experiment, the target named is Pyk2(h) (Homo sapiens, UniProt Q14289). Nature of the experiment: Inhibition of isolated kinases. In kind it is biochemical. To be noted: compound @ 10 μM.
Pyk2(h), sequence (Q14289 whole entry): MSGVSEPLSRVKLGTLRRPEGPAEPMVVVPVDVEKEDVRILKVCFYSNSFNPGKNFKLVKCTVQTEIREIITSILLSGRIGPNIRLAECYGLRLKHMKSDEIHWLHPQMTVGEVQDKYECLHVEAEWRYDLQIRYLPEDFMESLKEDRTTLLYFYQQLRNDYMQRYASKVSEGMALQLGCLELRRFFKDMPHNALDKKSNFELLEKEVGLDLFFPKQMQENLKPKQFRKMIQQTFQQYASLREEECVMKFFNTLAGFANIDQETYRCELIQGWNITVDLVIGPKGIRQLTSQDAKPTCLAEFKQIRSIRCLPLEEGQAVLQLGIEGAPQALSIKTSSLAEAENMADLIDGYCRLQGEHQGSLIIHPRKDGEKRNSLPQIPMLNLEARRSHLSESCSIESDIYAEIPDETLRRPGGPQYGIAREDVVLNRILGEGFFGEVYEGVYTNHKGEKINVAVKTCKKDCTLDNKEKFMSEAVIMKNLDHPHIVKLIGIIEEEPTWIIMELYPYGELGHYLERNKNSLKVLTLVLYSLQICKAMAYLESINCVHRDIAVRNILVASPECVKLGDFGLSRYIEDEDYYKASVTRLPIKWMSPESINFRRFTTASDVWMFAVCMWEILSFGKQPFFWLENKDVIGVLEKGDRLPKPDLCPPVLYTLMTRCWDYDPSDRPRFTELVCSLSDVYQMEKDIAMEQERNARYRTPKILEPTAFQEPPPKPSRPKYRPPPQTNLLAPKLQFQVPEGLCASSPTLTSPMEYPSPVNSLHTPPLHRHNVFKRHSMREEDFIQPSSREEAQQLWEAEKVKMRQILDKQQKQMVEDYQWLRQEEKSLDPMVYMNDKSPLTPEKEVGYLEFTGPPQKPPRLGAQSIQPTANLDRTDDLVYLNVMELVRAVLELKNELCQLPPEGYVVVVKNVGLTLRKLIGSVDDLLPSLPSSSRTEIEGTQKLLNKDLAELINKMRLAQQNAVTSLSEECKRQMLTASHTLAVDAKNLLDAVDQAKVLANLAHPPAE
Text: as §1

The target of another experiment is IR(h) (Homo sapiens, UniProt P06213). As to the kind of experiment: Inhibition of isolated kinases. The following applies: compound @ 10 μM. In kind it is biochemical.
Text: as §1

The target of a further experiment is FGFR2(h) (Homo sapiens, UniProt P21802). As to the kind of experiment: Inhibition of isolated kinases. The following applies: compound @ 10 μM. In kind it is biochemical.
Text: as §1

A further experiment concerns PI3 kinase. As to the kind of experiment: Inhibition of isolated kinases. In kind it is biochemical. The following applies: compound @ 10 μM.
Text: as §1

For a further experiment, the target named is EGFR(h) (Homo sapiens, UniProt P00533). As to the kind of experiment: Inhibition of isolated kinases. In kind it is biochemical. The following applies: compound @ 10 μM.
Text: as §1

In the next experiment the target is IGF-1R(h) (Homo sapiens, UniProt P08069). Nature of the experiment: Inhibition of isolated kinases. It counts as biochemical. To be noted: compound @ 10 μM.
Text: as §1

For the next experiment, the target named is Fyn(h) (Homo sapiens, UniProt P06241). Nature of the experiment: Inhibition of isolated kinases. It counts as biochemical. The following applies: compound @ 10 μM.
Fyn(h), sequence (P06241 whole entry): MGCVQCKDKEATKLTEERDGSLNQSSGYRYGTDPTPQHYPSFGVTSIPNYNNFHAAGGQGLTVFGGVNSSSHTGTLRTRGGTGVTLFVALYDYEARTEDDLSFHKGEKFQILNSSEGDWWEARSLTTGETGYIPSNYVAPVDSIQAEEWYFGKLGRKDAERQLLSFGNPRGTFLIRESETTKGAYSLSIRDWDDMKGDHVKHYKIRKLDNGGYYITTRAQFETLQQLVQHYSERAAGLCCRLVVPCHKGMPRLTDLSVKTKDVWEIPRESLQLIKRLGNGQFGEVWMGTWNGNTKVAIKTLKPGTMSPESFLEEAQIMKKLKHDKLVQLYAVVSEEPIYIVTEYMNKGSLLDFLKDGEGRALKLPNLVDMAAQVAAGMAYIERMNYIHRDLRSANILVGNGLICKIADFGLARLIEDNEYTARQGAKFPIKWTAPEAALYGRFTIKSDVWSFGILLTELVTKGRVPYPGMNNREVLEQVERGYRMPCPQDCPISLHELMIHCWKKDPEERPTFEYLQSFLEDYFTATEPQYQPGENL
Text: as §1

The target of another experiment is Abl(h) (Homo sapiens, UniProt P00519). As to the kind of experiment: Inhibition of isolated kinases. In kind it is biochemical. To be noted: compound @ 10 μM.
Abl(h), sequence (P00519 whole entry): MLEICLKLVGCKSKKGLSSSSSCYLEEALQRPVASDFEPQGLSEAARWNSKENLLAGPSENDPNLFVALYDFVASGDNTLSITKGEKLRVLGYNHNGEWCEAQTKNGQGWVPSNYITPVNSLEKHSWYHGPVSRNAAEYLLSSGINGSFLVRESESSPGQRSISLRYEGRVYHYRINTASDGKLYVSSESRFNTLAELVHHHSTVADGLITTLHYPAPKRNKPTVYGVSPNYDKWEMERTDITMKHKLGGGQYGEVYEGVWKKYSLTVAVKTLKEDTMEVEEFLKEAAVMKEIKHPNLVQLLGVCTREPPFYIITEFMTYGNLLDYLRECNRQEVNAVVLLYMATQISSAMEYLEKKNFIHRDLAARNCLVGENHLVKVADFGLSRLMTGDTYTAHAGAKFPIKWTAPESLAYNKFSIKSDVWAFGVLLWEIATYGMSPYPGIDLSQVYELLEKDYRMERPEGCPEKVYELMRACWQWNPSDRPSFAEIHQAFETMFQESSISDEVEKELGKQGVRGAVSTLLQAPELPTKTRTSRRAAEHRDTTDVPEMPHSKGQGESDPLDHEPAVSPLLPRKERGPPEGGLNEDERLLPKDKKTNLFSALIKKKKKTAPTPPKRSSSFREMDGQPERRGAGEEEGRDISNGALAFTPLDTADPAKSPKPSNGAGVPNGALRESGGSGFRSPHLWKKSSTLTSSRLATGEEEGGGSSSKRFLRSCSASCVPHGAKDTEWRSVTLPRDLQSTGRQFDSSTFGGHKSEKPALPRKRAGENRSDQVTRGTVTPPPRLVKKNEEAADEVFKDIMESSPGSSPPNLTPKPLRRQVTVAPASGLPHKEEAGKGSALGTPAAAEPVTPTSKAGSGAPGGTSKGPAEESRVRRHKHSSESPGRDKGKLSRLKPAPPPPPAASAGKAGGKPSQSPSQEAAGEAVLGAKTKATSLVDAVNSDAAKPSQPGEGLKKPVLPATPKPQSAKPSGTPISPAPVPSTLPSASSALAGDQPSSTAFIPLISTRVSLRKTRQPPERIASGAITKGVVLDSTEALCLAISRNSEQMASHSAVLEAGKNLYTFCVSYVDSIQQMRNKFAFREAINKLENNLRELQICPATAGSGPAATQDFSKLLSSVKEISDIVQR
Text: as §1

Another experiment addresses ZAP-70(h) (Homo sapiens, UniProt P43403). Nature of the experiment: Inhibition of isolated kinases. In kind it is biochemical. To be noted: compound @ 10 μM.
Text: as §1

A further experiment addresses PKCα(h) (Homo sapiens, UniProt P17252). As to the kind of experiment: Inhibition of isolated kinases. In kind it is biochemical. The following applies: compound @ 10 μM.
Text: as §1

Another experiment deals with Yes(h) (Homo sapiens, UniProt P07947). Nature of the experiment: Inhibition of isolated kinases. In kind it is biochemical. The following applies: compound @ 10 μM.
Text: as §1

The target of the next experiment is MAPK2(h) (Homo sapiens, UniProt P28482). Nature of the experiment: Inhibition of isolated kinases. The following applies: compound @ 10 μM. It counts as biochemical.
MAPK2(h), sequence (P28482 whole entry): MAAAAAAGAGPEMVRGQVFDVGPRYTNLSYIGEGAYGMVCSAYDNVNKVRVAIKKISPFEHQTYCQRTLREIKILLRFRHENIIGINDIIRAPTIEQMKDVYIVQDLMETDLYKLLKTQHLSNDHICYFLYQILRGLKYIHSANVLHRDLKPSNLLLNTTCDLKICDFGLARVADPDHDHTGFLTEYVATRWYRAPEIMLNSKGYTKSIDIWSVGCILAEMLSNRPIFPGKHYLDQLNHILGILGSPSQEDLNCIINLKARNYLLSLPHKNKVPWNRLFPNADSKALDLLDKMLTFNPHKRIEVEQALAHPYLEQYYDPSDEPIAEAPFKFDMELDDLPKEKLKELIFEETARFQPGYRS
Text: as §1

Another experiment deals with FAK Tyr 925. Nature of the experiment: Intracellular phosphorylation levels: FAK Tyr 925. It counts as cell-based. To be noted: c-Src/NIH-3T3 and HT-29 cells; FIG. 2. The procedure: (§2) HT29 (colon cancer) and c-Src527F/NIH-3T3 (Src transformed) cell lines were treated with KX2-391 or with AstraZeneca's ATP competitive Src inhibitor AZ28. AZ28 serves as a positive comparator to show what a validated Src inhibitor should do in these assays. After treatment with compound, cells were lysed, subjected to PAGE and probed with a battery of antibodies. […] In addition, off-target protein phosphorylation was also investigated. Further, induction of apoptosis was evaluated via Caspase 3 cleavage. Multiple doses of each compound were tested because the trends in response to increasing drug concentration are the most reliable indicator of activity.
(§3) The same range of multiples of the GI50 for AZ28 in these two cell lines was run as a comparison.

For the next experiment, the target named is CHK1(h) (Homo sapiens, UniProt O14757). Nature of the experiment: Inhibition of isolated kinases. It counts as biochemical. The following applies: compound @ 10 μM.
Experiment [1] relates to PDGF receptor tyrosine kinase Y572/574. As to the kind of experiment: PDGF receptor autophosphorylation in cells. The following applies: c-Src/NIH-3T3 cells; FIG. 7. In kind it is cell-based. The procedure: as §2, §3
This is thought not to be a direct Src substrate in cells.

The next experiment relates to She Y239/240. Nature of the experiment: Intracellular phosphorylation levels: She Y239/240. It counts as cell-based. The following applies: c-Src/NIH-3T3 and HT-29 cells; FIG. 3. The procedure:
as §2, §3

The test system of the next experiment is Paxillin Y-31. As to the kind of experiment: Intracellular phosphorylation levels: Paxillin Y-31. To be noted: c-Src/NIH-3T3 cells; FIG. 4. It counts as cell-based. The protocol: as §2, §3
Note: paxillin Y-31 was not detected in HT29 cells with or without added drug.

Another experiment concerns FAK Y397. As to the kind of experiment: FAK autophosphorylation in cells. In kind it is cell-based. To be noted: c-Src527F/NIH3T3 cells; FIG. 8. The protocol: as §2, §3
FAK Y397 is mainly a FAK autophosphorylation site and only a poor Src transphorylation site. AZ28 is […] FAK inhibitor (see isolated enzyme data in Table 5). However, no inhibition of FAK autophosphorylation in c-Src527F/NIH3T3 cells is seen with KX-391.

Experimental findings from US20210252008A1, “BIARYL COMPOSITIONS AND METHODS FOR MODULATING A KINASE CASCADE” (Athenex, Inc., priority 2004, published 2021) are described below.

Lyn(h), sequence (P07948 whole entry): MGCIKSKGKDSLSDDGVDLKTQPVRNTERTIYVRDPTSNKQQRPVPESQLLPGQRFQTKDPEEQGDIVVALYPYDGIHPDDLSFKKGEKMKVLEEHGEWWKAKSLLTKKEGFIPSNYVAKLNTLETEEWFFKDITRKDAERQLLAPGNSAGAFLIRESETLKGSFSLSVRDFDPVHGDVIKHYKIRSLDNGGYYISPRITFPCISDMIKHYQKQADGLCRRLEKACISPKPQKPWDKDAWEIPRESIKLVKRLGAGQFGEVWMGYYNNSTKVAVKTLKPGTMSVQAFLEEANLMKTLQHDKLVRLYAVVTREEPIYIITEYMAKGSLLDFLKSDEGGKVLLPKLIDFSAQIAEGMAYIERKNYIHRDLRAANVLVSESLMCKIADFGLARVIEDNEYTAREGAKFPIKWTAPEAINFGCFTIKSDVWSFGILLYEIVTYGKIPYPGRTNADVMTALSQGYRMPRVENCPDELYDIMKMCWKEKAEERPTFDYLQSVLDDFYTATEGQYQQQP
Lck(h), sequence (P06239 whole entry): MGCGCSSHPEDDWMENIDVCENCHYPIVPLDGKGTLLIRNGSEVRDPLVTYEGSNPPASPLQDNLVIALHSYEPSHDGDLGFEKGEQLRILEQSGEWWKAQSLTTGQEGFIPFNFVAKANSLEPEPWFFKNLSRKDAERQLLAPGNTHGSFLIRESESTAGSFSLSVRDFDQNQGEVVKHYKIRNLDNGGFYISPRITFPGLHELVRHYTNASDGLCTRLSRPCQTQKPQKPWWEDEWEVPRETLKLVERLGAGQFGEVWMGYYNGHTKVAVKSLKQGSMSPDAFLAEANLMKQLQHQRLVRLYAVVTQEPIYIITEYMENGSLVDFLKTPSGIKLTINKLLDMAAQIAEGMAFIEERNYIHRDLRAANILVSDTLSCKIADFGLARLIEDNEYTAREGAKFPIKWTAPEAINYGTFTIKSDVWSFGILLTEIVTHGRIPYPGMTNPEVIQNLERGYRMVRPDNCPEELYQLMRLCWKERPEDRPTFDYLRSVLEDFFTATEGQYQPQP

With `O=C(Cc1ccc(-c2ccc(OCCN3CCOCC3)cc2)cn1)NCc1ccccc1` [KX2-391], the “percent activity of isolated kinase relative to control (untreated)” value turned out to be 110% on PDGFRβ(h); 113% on Lyn(h); 109% at Lck(h); 97% at Pyk2(h); 112% on IR(h); 94% on FGFR2(h). Further, the “percent activity of isolated kinase relative to control (untreated)” value was 100% in the experiment on PI3 kinase; 134% on EGFR(h); 101% at IGF-1R(h); 85% at Fyn(h); 120% on Abl(h); 108% on ZAP-70(h). For the same compound, the “percent activity of isolated kinase relative to control (untreated)” value on PKCα(h) is 111%; at Yes(h), 92%; on MAPK2(h) it was 112%; at CHK1(h) it was 105%. Also, the “phosphorylation of FAK Tyr 925 (Src trans-phosphorylation)” value in the experiment on FAK Tyr 925 is “inhibited”. The “PDGF receptor autophosphorylation (Y572/574)” value in experiment [1] is recorded as “Some effect”. The “phosphorylation of She Y239/240 (Src trans-phosphorylation)” value in the experiment on She Y239/240 is on record as “inhibited”. In the experiment on Paxillin Y-31, the “phosphorylation of Paxillin Y-31 (Src trans-phosphorylation)” value is “inhibited”. Further, in the experiment with FAK Y397, the “FAK autophosphorylation (Y397)” value is recorded as “no inhibition”.
